Measured values published in US7388105B2, “Compounds and use to reduce the formation of malodour” (Givaudan S.A., priority 2005, dated 2008).
Like-named read-outs stand apart in the source and are kept apart here.

Molecular target: alpha-N-acyl-glutamine-aminoacylase (Corynebacterium striatum, UniProt Q8GGD4)
Test: Competitive substrates of alpha-N-acyl-glutamine-aminoacylase: reduction of acid release
Assay type: biochemical
Details: for inhibition at 50 µM: tested compound 0.05 mM; for inhibition at 50 µM / inhibition at 100 µM / inhibition at 200 µM / inhibition at 400 µM: 15 min; for inhibition at 100 µM: tested compound 0.1 mM; for inhibition at 200 µM: tested compound 0.2 mM; for inhibition at 400 µM: tested compound 0.4 mM
Experimental: In a sample, the enzyme alpha-N-acyl-glutamine-aminoacylase was used at a concentration of 36 ng/ml in Buffer A (50 mM NaCl; 50 mM NaH2PO4/K2HPO4; pH 7). To each sample, alpha-N-decanoyl-glutamine or alpha-N-(E)-3-methyl-2-hexenoyl-glutamine was added at a final concentration of 0.2 mM as a substrate.
Further, to each sample various competitive substrates are added as shown in Table 1 below at different concentrations as indicated.
The resulting samples with enzyme, substrate and competitive substrate were incubated for 15 minutes, acidified to pH 2 with HCl and extracted with methyl tert butyl ether (MTBE). […] The percentage of the reduction of the release when compared to the positive control is given in Table 1 (equals inhibition of the enzmye).

[1] = substrate alpha-N-decanoyl-glutamine 0.2 mM, release of decanoic acid vs positive control, read-out: % Inhibition (DA)
[2] = substrate alpha-N-(E)-3-methyl-2-hexenoyl-glutamine 0.2 mM, release of (E)-3-methyl-2-hexenoic acid vs positive control, read-out: % Inhibition (MH)

alpha-N-acyl-glutamine-aminoacylase, sequence (Q8GGD4 whole entry): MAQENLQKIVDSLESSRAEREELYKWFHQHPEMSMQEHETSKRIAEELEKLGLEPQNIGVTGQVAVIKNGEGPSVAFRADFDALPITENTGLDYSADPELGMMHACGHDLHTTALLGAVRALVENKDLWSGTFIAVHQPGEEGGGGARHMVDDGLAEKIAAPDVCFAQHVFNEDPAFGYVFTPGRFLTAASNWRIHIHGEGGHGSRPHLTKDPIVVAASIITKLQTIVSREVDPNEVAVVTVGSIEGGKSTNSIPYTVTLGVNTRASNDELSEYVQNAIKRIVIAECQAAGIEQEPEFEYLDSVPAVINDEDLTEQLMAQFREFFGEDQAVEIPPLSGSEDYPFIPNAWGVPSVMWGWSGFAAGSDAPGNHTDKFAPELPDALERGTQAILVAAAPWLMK

SMILES	inhibition at 50 µM [1]	inhibition at 100 µM [2]	inhibition at 100 µM [1]	inhibition at 200 µM [2]	inhibition at 200 µM [1]	inhibition at 400 µM [2]	Inhibition of Nα-acyl-glutamine-aminoacylase (in words) (summary of Table 1)
CC(C)(C)C1CCC(OC(=O)N[C@@H](CCC(N)=O)C(=O)O)CC1 (stereo partly drawn) [Compound 6, alpha-N-(4-tert-Butylcyclohexyloxycarbonyl)-L-glutamine]	11.3%	4.9%	14.3%	14.8%	21.2%	28.5%	–
CC(C)=CCCC(C)CCOC(=O)NC(CCC(N)=O)C(=O)O [Compound 4, alpha-N-(3,7-dimethyl-oct-6-enyloxycarbonyl)-L-glutamine]	15.9%	-0.3%	13.8%	17.1%	34.6%	16.1%	–
CCCCOC(=O)N[C@@H](CCC(N)=O)C(=O)O [Compound 5, alpha-N-Butyloxycarbonyl-L-glutamine]	6.7%	1.1%	6.8%	0%	10.4%	0%	–
CC1CCC(C(C)C)C(OC(=O)NC(CCC(N)=O)C(=O)O)C1 [Compound 3, alpha-N-(2-isopropyl-5-methylcyclohexanyloxycarbonyl)-L-glutamine]	–	7.4%	19.3%	16.5%	27.2%	33.9%	–
C=CCCCCCCCCC(=O)NC(CCC(N)=O)C(=O)O [Compound 2, alpha-N-(10-undecenoyl)-L-glutamine]	0.9%	0%	2.2%	2.1%	15.6%	24.2%	–
CC(CCOC(=O)NC(CCC(N)=O)C(=O)O)CCc1ccccc1 [Compound 1, alpha-N-(3-Methyl-5-phenylpentanyloxycarbonyl)-L-glutamine]	38.3%	35.5%	57%	58.1%	64.4%	78.3%	particularly good inhibitor
